# A melting point compilation (Tetko et al.; mined from patent text by program, amines drawn as free bases though some values may be those of a salt)
row,SMILES,melting point [°C]
1,O=C1C(=O)c2ccc(-c3ccncc3)cc2C2=C1SCC1(CCN(C(=O)c3cccc(Cl)c3)CC1)O2,265 to 267
2,CC(C)(C)c1ccc(C(=O)c2ccc3n2Cc2ccccc2N(C(=O)c2ccc(C4CCCCC4)cc2)C3)cc1,143 to 145
3,COc1cc2c(cc1OC)C(=O)c1cc3ccccc3cc1C2=O,> 250
4,O=c1n(Cc2ccc([N+](=O)[O-])cc2)c2ccccc2n1Cc1ccc(C(F)(F)F)cc1,134 to 137
5,CCCCCCCCCCCCCCCCC(=O)Nc1ccn(C2OC(CO)C(O)C2O)c(=O)n1 (stereo not given),144 to 147
6,O=c1oc(-c2ccc(OCCCc3ccccc3)cc2)cc(O)c1SCCc1ccccc1,139 to 142
7,CC1(C)C2CC[C@]1(C)C(=O)C(C(=O)Nc1cccc(C(F)(F)F)c1)C2=O (stereo not given in full),60 to 62
8,O=c1nc(-c2cccc(CSc3ccncc3)n2)sc2ccccc12,182
9,N#C/C=C1\CCc2ncc3c(c21)CCO3,231 to 233
10,CC1C(O)C(C(C)(C)O)C(=O)N1c1ccc(C#N)c(Cl)c1 (stereo not given),131 to 132
11,O=C(O)c1ccc2c(c1)C(=O)CCC2,210 to 215
12,COc1ccc(-c2cccc3c2C2(COc4cc5c(cc42)OCCO5)C(=O)N3Cc2ccccn2)cc1 (stereo not given),205 to 206
13,CN(C)C(=O)C1Cc2ccc(N)cc2NC1=O (stereo not given),219 to 223
14,Cc1ccc(S(=O)(=O)OCCc2ccc3[nH]cc(S(=O)(=O)c4ccccc4)c3c2)cc1,60 to 63
15,CC(COc1cccc2oc(C#N)cc(=O)c12)OC=O (stereo not given),113 to 115
16,O=S(=O)(Nc1cccc2cc(C3=NCCS3)[nH]c12)c1cccs1,189 to 190
17,Cc1cc(=O)[nH]c2c1C(=O)CC(c1ccccc1Cl)C2 (stereo not given),290 to 291
18,Nc1nc(COc2ccccc2)nc2nccnc12,202 to 204
19,Cn1nc(-c2c(Cl)cc(C(F)(F)F)cc2Cl)cc1N,161 to 163
20,CN(C)CC1CCc2cc(NC(=O)c3ccc(-c4ccc(Cl)c(Cl)c4)cc3)ccc2C1 (stereo not given),143 to 145
21,CSc1sc(C(=O)O)c2c1-c1sc(C(=O)O)cc1CC2,> 300
22,O=C(NCc1ccccc1)c1ccnc(NC(=O)c2cc(F)cc(F)c2)c1,185 to 187
23,Cc1ncc2n1-c1ccccc1N(c1ccccc1)C(=O)C2,217 to 220
24,O=C1CCN(Cc2cccnc2)C(=O)C1=C1SC=CS1,132 to 133
25,COc1ccc2c3c(c(=O)oc2c1)CN(CCc1ccccc1)CC3,135 to 136
26,COc1ccc2c(c1)C1(O)C(=O)c3ccccc3C1(O)O2 (stereo not given),186 to 189

row,SMILES,melting point [°C]
1,C#Cc1ncn2c(C(F)(F)F)cc(-c3ccc(C(F)(F)F)cc3)nc12,163
2,N#Cc1n[nH]c2nc(N3CCCNCC3)ccc12,196 to 197
3,OC(CNC1CCc2ccccc2C1)COc1ccccc1Cl (stereo not given),98 to 101
4,COC(=O)c1sc2c(c1O)CSC2,133 to 137
5,COC(=O)c1ccc(NC2CCCCC2)cc1C(=O)OC,217 to 219
6,O=c1[nH]c(N[N+](=O)[O-])ncc1Cc1cccc2ccccc12,226 to 227
7,Nc1ccc(Nc2cccc3c2C(=O)c2ccccc2C3=O)cc1,175 to 182
8,CN(Cc1cccc(-c2ccc(CC3SC(=O)NC3=O)cc2)c1)C(=O)c1cccs1 (stereo not given),160
9,O=C(C[C@@H](NC(=O)C(F)(F)F)C(=O)O)c1ccc(F)c(F)c1,136 to 137
10,O=C(O)CN(C(=O)CCSC(=O)c1ccccc1)[C@H]1CC[C@H](c2ccccc2)CC1,125 to 128
11,COc1ccccc1CC(=N)N1C[C@@H]2C(=O)CCC(c3ccccc3)(c3ccccc3)[C@@H]2C1,190
12,CS(=O)(=O)c1ccc(N2CC(O)(C(F)(F)F)N=C2c2ccccn2)cc1 (stereo not given),195 to 198
13,CC(C)C(=O)NCc1cccc2c1C(=O)N(C1CCC(=O)NC1=O)C2=O (stereo not given),218 to 220
14,COc1cn(-c2cccc(C(F)(F)F)c2)nc(-c2ccnn2-c2ccccc2)c1=O,139 to 141
15,COc1c(N2CC3CCC(N)C3C2)c(F)cc2c(=O)n(N)c(=O)n(C3CC3)c12 (stereo not given),250 to 252
16,CCOC(=O)c1cccc(NC(=O)N[C@@H]2N=C(c3ccccc3)c3ccccc3N(C)C2=O)c1,140 to 142
17,CC(C)C(=O)CCC(C)C1CCC2(C#N)C3=CCC4CC(OC(=O)c5ccccc5)CCC4(C)C3CCC12C (stereo not given),168 to 169
18,CC(C(=O)O)c1ccc(C(=O)c2ccc(Br)o2)cc1 (stereo not given),108 to 110
19,CC(C)(C)OC(=O)N1CCC2(CC1)C(=O)N(CC(=O)O)CN2C1CCCCC1,173 to 174
20,Oc1ccc2nc(-c3ccccc3)cc(Cl)c2c1,180 to 181
21,Cn1ncc(SCc2ccccc2)c(Cl)c1=O,102 to 104
22,O=S(=O)(NS(=O)(=O)c1ccc(CCBr)cc1)c1ccccc1,148 to 150
23,OCc1nn(-c2ccccc2)c2c1CCC2,94 to 95
24,FC(F)(F)C(=Cc1ccccc1)c1ccc(Cl)cc1,63 to 66
25,Brc1ccc(-c2cc(-c3ccc(Br)cc3)on2)cc1,218 to 220
26,CN1CCN(S(=O)(=O)Nc2ccc(-c3nc(-c4ccc(F)cc4)c(-c4ccncc4)[nH]3)cc2)CC1,74 to 76

# Results, then the compound that gave them:
row,melting point [°C],SMILES
1,114 to 116,CCCCNc1c(C(=O)OCC)cnc2c1c(C)nc1cc(C)nn12
2,130 to 132,CNCc1cccc(NC(=O)c2c[nH]c3c2C(=O)CCC3)c1
3,207 to 209,COc1cccc(Cc2ccc3nc(N)nc(N)c3c2)c1
4,219 to 220,COc1cccc(CNc2ncnc3c2sc2nc(N4CCOCC4)c4c(c23)CC(C)(C)CC4)c1OC
5,85,COc1ccc2c(c1)Sc1c(cc(OC)c(O)c1Br)N2C(=O)OC(C)OC(=O)C(C)(C)C (stereo not given)
6,93 to 94,CNC(=C[N+](=O)[O-])NCCCOc1cccc(CCN(C)C)c1
7,164 to 168,CCCc1nc2c(N)nc3cc(OCCCNS(=O)(=O)CCc4cccc5ccccc45)ccc3c2n1CC(C)C
8,188 to 189,COc1cc(OC)c2c(=O)nc(-c3cc(C)c(O)c(C)c3)n(C)c2c1
9,93.5 to 94,C[Si](C)(CCSCCCNC(=O)n1cc(F)c(=O)[nH]c1=O)c1ccccc1
10,241 to 243,CCn1c(=O)c2[nH]c(/C=C/c3cccc(Oc4ccccc4)c3)nc2n(CC)c1=O
11,182 to 184,CC(=O)OCC1C=CC(n2cc(F)c(N)nc2=O)O1 (stereo not given)
12,200 to 205,COc1ccc2c(=O)[nH]ncc2c1
13,128 to 130,CCCc1c(OCC(=O)O)ccc(C(C)=O)c1O
14,129 to 131,COc1ccc(-c2nc(C)c(C(=O)O)s2)cc1
15,109 to 111,CCOC(=O)c1ccc(OCc2ccc3c(c2)C(C)(C)CCC3(C)C)cc1
16,225 to 227,Cc1nc(-n2cccc(C(=O)Nc3ccccc3)c2=O)sc1C(=O)NCc1ccccc1
17,94 to 95.5,CCOc1nccc(CC(=O)O)c1NC(=O)OC(C)(C)C
18,> 240,Cc1c(C(=O)O)ccc2c1[nH]c1ccccc12
19,65 to 66,COc1ccc2cc([C@H](C)C(=O)OC[C@](C)(O)CO)ccc2c1
20,113 to 115,CCCCNc1ccc(-c2cc3ccccc3o2)cc1
21,114 to 116,Cc1cc(C)c2c(c1O)C(NS(C)(=O)=O)CC2 (stereo not given)
22,103 to 105,CC(=O)c1c(N(C)C)c(-c2ccccc2)n(Cc2ccccc2Cl)c1C
23,230,COc1cc(Cc2cnc(N)nc2N)cc(-c2ccc(N(C)C)cc2)c1OC
24,144 to 145,CCCC(=O)c1cnc2c(OCCOCCO)cccc2c1Nc1ccc(F)cc1C

row,melting point [°C],SMILES
1,136 to 138,COc1ccc(C[C@@H](CO)NC(=O)c2cccnc2Br)cc1OC
2,73.5 to 76,CNc1cnc(N2CCOCC2)cc1-c1ccccc1C
3,200 to 202,CN1C(=O)CCC2(C)c3ccc(CC(=O)O)cc3CCC12 (stereo not given)
4,104 to 110,COC(=O)c1ccc2c(c1)Sc1ccccc1N=C2
5,237,CCCCC(CC)COc1ccc(N2C(C)=CC(=C=C3C(C#N)C(=C(C#N)C#N)OC3(C)C)C=C2C)cc1 (stereo not given)
6,208 to 210,COc1ccc(C(N)CC(=O)O)cc1OC (stereo not given)
7,210,COc1cc(OC)nc(NC(=O)NS(=O)(=O)Nc2nc(OC)cc(OC)n2)n1
8,89 to 91,COc1ccc(S(=O)(=O)Nc2cccnc2Nc2ccc(O)c(C)c2)cc1
9,56,COC(=O)CCc1ccc(CNC(=O)[C@@H]2Cc3ccccc3N2S(=O)(=O)c2ccc(C(C)(C)C)cc2)cc1
10,61 to 64,CCCc1c(OCCCCCCc2cc(C)c(O)c(O)c2C)ccc(C(=O)OCC)c1O
11,159,Cc1nc2sc(C)c(C)n2c(=O)c1CCN1CCC(C(=O)c2ccc(F)cc2)CC1
12,159 to 161,COc1cc(OC)nc(NC(=O)NS(=O)(=O)c2ncccc2C(CCl)OC(C)=O)n1 (stereo not given)
13,250 to 251,CCn1c(=O)c2c(nc(/C=C/c3ccc(OS(=O)(=O)C(F)(F)F)c(OC)c3)n2C)n(CC)c1=O
14,97 to 99,CCn1nccc1NC(=O)c1ccc(OC)c2oc(COC)cc12
15,181 to 183,Cc1nc2cnc3cc(Cl)ccc3c2s1
16,98,CCN(CC)C(=O)Oc1nc(-c2ccc(C)cc2)cc2ccccc12
17,132 to 138,CCC1Cc2cc(OCC(=O)O)c(Cl)cc2C1=O (stereo not given)
18,269 to 271,CC(=O)Nc1c(C(=O)c2cnccn2)[nH]c2cc(Cl)ccc12
19,126 to 127,Cc1ccccc1-n1nccc1-c1nn(-c2cccc(C(F)(F)F)c2)ccc1=O
20,185 to 186,CCCCOc1c(CNC(=O)OC(C)(C)C)n(CC(C)C)c(=O)c2ccc(C(=O)O)cc12
21,254 to 256,Cc1cc(C)c(NC(=O)NC2CC2c2ccc(-c3ncn(-c4ccc(OC(F)(F)F)cc4)n3)cc2)c(C)c1 (stereo not given)
22,116 to 117,Cc1oc(-c2ccccc2)nc1COc1ccc(CON=C(CCC(=O)O)c2ccccn2)cc1
23,242 to 244,Cc1cccc(Nc2cc(Nc3cccc(C)c3)ncn2)c1
24,204 to 205,COc1ccc(CSc2nnc(-c3ccc4[nH]ncc4c3)o2)cc1
